Laboratory results: paper PMC9021288 (Nature Communications, 2022)
Where two headings read alike, the source gives them in different places.

Tests used:
[1] = tested on: P. falciparum field isolates from Uganda; test: Ex vivo growth inhibition assay, Uganda field isolates; format: cell-based, Plasmodium falciparum; details: N = 230 isolates
Procedure: An ex vivo growth inhibition assay was performed on fresh clinical P. falciparum isolates in Uganda. […] Parasite density was quantified by fluorescence after incubation with SYBR Green lysis buffer measured on a BMG Fluostar Optima plate reader, as previously described.

[2] = tested on: P. falciparum 3D7; test: Parasite reduction rate (PRR) in vitro killing rate assay; format: cell-based, Plasmodium falciparum
Procedure: The antimalarial killing rate was determined by GlaxoSmithKline (GSK, Tres Cantos, Madrid, Spain) as described previously. […] The number of viable parasites was determined on day 21 and 28 by counting the wells with parasite growth.

[3] = biological target: T1, human recombinant CYP2C8 (Homo sapiens, UniProt P10632); test: CYP reaction phenotyping; format: in vitro ADME
T1 construct: purchased Bactosomes (assay run at Cyprotex)
T1 sequence (P10632 1-490): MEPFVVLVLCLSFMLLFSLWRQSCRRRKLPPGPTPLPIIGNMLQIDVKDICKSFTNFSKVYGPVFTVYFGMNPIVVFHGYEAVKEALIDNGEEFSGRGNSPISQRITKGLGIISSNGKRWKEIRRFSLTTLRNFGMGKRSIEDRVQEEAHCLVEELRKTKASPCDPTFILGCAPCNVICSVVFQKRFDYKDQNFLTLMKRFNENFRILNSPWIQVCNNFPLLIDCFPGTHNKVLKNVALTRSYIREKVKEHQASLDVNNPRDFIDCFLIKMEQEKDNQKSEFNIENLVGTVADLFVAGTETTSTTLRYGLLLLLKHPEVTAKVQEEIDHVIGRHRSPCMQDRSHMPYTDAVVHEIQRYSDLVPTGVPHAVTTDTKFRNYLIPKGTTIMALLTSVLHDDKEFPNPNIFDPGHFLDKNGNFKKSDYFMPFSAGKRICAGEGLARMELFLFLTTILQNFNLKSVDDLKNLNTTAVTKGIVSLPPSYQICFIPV
Procedure: In vitro CYP reaction phenotyping was performed at Cyprotex (Alderly Park, United Kingdom). […] The remaining test compound at each time point was analyzed by LC-MS/MS.

[4] = tested on: P. falciparum NF54 asexual blood-stage parasites; design: method as in earlier work; details: ref 15 (Schalkwijk et al.); cited from earlier work

## C[C@@H](CNC(=O)[C@H](O)C(C)(C)CO)NC(=O)c1cc(F)c(F)cc1F [MMV693183]
[1]; read-out: IC50 maximum
  IC50: 11 nM
[1]; read-out: IC50 minimum
  IC50: 0.3 nM
[2]; 40 nM (10x IC50)
  time to parasitemia below the detection limit: ≤ 48 h
[2]; 24 h
  Average (log parasites +1): 0.452
[2]; 48 h
  Average (log parasites +1): 0.0
  log (parasites +1): 0.0
  parasites: 0
[2]; 72h
  Average (log parasites +1): 0.0
  log (parasites +1): 0.0
  parasites: 0
[2]; 96h
  Average (log parasites +1): 0.0
  log (parasites +1): 0.0
  parasites: 0
[2]; 120h
  Average (log parasites +1): 0.0
  log (parasites +1): 0.0
  parasites: 0
[3]; Incubation time (minutes) 0
  Compound remaining (0 min = 100): 100
[3]; Incubation time (minutes) 5
  Compound remaining (0 min = 100): 99.9
[3]; Incubation time (minutes) 15
  Compound remaining (0 min = 100): 100
[3]; Incubation time (minutes) 30
  Compound remaining (0 min = 100): 101
[3]; Incubation time (minutes) 45
  Compound remaining (0 min = 100): 101

## CC(CNC(=O)C(O)C(C)(C)CO)NC(=O)CCc1ccccc1F (stereo in doubt) [MMV689258]
[4]
  IC50: 5 nM
